Test results from ChEMBL document CHEMBL1201862, “PubChem BioAssay data set” (2004).
Active and inactive are the calls of the source.

Assays:
[1] = biological target: FAD-linked sulfhydryl oxidase ALR (Homo sapiens, UniProt P55789); experiment: inhibitors of human ALR sulfhydryl oxidase, dose response, biochemical, H2O2 detection, luminescence, cherry-pick (AID 493248)
H9c2 = experiment: cells; format: functional, cell-based; details: Rattus norvegicus, H9c2, Myocardium;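 note: confirmatory concentration-response retest of ultra-high-throughput screening hits for modulation of myocardial damage; cell death induced by hydrogen peroxide oxidative stress; compound pretreatment for 60 min then peroxide exposure for 2 h; potency is for protecting the cells against peroxide damage rather than for killing them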
Paired box protein Pax-8 = Paired box protein Pax-8 (Homo sapiens, UniProt Q06710); experiment: inhibitors of PAX8-driven TPO luciferase reporter, dose response, RMG-I cells, cherry-pick (AID 687027); format: functional, cell-based;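 note: luciferase reporter driven by Pax8 target thyroperoxidase promoter measured by SteadyGlo luminescence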
[2] = biological target: T1, Calpain-2 catalytic subunit (Sus scrofa, UniProt P43367); experiment: pig calpain II inhibitor potency, dose response, biochemical, fluorogenic peptide substrate (AID 1420); format: functional
T1 sequence (P43367 whole entry): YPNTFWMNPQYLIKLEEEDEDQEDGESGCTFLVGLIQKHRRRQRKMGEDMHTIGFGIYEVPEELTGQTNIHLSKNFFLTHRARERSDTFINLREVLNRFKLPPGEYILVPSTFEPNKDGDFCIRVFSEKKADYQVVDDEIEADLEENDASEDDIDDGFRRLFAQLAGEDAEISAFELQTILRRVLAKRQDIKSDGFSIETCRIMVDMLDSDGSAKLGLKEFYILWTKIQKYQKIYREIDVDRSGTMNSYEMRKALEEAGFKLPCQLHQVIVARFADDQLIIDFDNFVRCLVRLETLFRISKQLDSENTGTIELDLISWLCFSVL

[3] = growth suppression of PTEN-null colon cells, dose response, cell-based, HCT116 PTEN knockout (AID 1047); format: functional;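 note: HCT116 colon tumor cells with PTEN knocked out; cells exposed to compound for 60 hours before readout; potency for loss of cell viability measured by luminescence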
[4] = growth suppression of beta-catenin-knockout colon cells, dose response, cell-based, HCT116, human colon tumor (AID 1045); format: functional;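 note: HCT116 colon tumor cells with beta catenin knocked out; cells exposed to compound for 60 hours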
[5] = biological target: T2, Replicative DNA helicase DnaB (Mycobacterium tuberculosis, UniProt P9WMR3); experiment: DnaB intein splicing inhibitors, dose response, biochemical, cell-free fluorescence (AID 449749); format: functional
T2 sequence (P9WMR3 whole entry): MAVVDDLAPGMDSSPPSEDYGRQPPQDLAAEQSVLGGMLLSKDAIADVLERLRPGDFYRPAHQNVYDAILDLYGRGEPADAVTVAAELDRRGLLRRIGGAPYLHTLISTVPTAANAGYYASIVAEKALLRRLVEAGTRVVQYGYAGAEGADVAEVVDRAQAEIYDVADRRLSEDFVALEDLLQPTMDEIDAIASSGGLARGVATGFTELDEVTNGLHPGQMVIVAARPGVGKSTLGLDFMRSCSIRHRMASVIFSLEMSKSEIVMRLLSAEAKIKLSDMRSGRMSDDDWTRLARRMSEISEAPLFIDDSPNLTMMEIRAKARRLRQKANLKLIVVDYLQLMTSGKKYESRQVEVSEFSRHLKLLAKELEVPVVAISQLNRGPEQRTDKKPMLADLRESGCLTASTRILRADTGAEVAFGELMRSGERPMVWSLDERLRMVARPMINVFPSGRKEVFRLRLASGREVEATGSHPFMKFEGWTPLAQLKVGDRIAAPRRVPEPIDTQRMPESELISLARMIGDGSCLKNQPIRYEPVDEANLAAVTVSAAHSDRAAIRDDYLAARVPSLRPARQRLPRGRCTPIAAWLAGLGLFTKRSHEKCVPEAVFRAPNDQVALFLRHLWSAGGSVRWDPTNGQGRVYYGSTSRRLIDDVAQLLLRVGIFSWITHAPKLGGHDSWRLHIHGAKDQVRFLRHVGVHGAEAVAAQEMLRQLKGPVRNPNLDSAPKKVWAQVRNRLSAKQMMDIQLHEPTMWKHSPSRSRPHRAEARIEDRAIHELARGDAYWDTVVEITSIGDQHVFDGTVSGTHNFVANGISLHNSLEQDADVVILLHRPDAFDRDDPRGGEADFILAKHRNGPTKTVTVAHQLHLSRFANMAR

Protein RecA = biological target: T3, Protein RecA (Mycobacterium tuberculosis, UniProt P9WHJ3); experiment: Fluorescence Cell-Free Homogeneous Dose Retest to Identify Inhibitors of RecA-Intein Splicing Activity. [Related pubchem assays (depositor defined):AID2097, AID2223, AID489010, AID492950]; format: functional
T3 sequence (P9WHJ3 whole entry): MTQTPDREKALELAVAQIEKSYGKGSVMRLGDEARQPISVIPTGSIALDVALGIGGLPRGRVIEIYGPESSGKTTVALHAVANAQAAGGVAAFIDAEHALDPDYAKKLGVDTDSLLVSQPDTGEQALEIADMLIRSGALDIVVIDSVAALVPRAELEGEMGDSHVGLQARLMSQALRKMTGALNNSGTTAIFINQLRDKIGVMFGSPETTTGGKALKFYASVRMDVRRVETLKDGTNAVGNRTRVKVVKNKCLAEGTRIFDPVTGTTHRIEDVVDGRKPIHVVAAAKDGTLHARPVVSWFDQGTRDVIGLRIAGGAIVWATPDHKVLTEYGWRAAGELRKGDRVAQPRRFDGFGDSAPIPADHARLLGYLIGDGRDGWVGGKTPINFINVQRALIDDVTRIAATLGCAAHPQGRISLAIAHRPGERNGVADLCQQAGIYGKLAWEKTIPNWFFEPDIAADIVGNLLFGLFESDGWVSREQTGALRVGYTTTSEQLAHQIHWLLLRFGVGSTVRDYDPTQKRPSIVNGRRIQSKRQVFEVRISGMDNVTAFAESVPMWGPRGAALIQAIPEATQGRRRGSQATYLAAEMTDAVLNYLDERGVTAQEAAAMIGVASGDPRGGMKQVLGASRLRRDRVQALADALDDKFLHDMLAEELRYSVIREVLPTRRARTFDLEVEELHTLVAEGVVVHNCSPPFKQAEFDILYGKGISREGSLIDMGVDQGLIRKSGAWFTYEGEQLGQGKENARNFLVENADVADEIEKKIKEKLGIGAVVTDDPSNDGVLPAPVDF

Vero = experiment: cells; format: functional; details: Chlorocebus sabaeus
[6] = HEp-2 cell cytotoxicity, dose response, cytotoxicity control for RSV inhibitor project, HTS (AID 2410); format: functional; details: human respiratory syncytial virus
[7] = inhibitors of HIV Env-driven cell fusion, dose response, cherry-pick (AID 652057); format: functional, cell-based
[8] = off-target signal loss in HeLa-CEM21 co-culture – HeLa F-luc CTL cells, cherry-picked, counter-screen for HIV-1 Env fusion inhibitor project, dose response (AID 652040); format: functional, cell-based;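 note: potency for signal decrease marking cytotoxic or nonspecific inhibition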
[9] = NIH-3T3 fibroblast cytotoxicity, dose response, cytotoxicity control, cell-based, fluorescence, Alamar Blue, secondary assay (AID 2327); format: functional;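 note: NIH-3T3 mouse fibroblasts cultured with fluconazole at 8 µg/mL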
[10] = C. albicans growth with fluconazole, confirmation, fluorescence, retest (AID 2467); format: functional, cell-based
[11] = biological target: T4, Microphthalmia-associated transcription factor (Homo sapiens, UniProt O75030); experiment: TRPM1 promoter luciferase signal decrease, dose response, MITF inhibitor project, cell-based, SK-MEL-5, cherry-picked, set 3 (AID 493073); format: functional
T4 sequence (O75030 whole entry): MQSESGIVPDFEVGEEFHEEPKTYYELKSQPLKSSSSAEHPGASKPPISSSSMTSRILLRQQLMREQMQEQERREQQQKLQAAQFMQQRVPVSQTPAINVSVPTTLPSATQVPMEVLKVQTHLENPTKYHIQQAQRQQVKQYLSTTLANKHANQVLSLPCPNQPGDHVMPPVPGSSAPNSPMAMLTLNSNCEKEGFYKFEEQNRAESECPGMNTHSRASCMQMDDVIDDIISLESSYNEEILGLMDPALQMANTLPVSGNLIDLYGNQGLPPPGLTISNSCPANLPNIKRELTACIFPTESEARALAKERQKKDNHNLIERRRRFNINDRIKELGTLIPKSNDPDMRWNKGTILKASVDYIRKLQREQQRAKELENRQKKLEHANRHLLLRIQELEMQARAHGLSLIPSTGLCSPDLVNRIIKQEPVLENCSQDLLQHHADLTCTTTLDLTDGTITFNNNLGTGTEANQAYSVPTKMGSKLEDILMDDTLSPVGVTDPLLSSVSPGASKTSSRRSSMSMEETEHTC

[12] = biological target: Induced myeloid leukemia cell differentiation protein Mcl-1 (Homo sapiens, UniProt Q07820); format: functional
Induced myeloid leukemia cell differentiation protein Mcl-1, sequence (Q07820 whole entry): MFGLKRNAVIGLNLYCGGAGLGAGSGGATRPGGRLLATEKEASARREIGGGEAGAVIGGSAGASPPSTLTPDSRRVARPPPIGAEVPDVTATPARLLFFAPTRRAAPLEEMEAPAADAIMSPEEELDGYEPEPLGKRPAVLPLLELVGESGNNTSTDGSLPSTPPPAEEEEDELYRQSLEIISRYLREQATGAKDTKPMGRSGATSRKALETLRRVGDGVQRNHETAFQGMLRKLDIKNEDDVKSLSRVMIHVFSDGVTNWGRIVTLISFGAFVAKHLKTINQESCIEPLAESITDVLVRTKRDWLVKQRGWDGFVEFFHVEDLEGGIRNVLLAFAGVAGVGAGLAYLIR

Paired box protein Pax-8, sequence (Q06710 whole entry): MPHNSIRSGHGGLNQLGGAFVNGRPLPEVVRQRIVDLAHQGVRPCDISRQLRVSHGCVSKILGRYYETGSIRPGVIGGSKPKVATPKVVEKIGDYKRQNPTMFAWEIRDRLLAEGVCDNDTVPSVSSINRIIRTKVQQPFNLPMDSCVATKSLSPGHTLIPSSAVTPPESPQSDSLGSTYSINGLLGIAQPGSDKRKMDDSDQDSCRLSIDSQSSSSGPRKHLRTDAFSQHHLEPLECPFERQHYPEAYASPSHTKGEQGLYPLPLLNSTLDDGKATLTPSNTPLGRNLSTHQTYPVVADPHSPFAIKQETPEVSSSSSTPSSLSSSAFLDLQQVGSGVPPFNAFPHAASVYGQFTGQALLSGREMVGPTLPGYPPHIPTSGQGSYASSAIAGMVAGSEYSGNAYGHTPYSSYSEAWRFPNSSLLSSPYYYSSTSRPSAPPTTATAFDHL
FAD-linked sulfhydryl oxidase ALR, sequence (P55789 whole entry): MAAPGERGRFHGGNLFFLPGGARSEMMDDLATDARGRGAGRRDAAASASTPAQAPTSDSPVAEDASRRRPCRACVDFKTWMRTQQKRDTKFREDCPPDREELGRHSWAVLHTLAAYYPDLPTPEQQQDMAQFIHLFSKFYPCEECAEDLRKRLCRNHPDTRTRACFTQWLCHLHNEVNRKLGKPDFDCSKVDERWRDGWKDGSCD

Cc1ccc(-c2nnc(S)n2/N=C/c2c(C)nn(-c3ccccc3)c2O)cc1
AC50 [1]: 13.5 µM (active)

COc1cc(C(=O)NNC(=O)c2ccc3ccccc3n2)cc(OC)c1OC
IC50 (H9c2): 8.15 µM (active)

COc1ccnc(Oc2ccc(F)cc2)c1C(=O)N=CNOCc1ccc(Cl)cc1Cl
IC50 (H9c2): > 79 µM (inactive)

O=C(C[C@H]1CC[C@H]2[C@@H](COC[C@@H](O)CN2Cc2ccc(Oc3ccccc3)cc2)O1)N1CCCCC1
AC50 (Paired box protein Pax-8): 15 µM (active)

O=C(Cn1[nH]c(=O)c2ccccc2c1=O)NC1CCCCCC1
IC50 (H9c2): 25.3 µM (active)

Cc1ccc(CNC(=O)c2oc3ccc(S(=O)(=O)N4CCOCC4)cc3c2C)cc1
IC50 [2]: 23.5 µM (not active) | IC50 (H9c2): > 79 µM (inactive)

COc1ccc2nc(SCC(=O)Nc3ccc4sc(C)nc4c3)c(C#N)cc2c1
EC50 [3]: 21.3 µM (active) | EC50 [4]: 20 µM (active)

COC(=O)Nc1ccc(S(=O)(=O)Nc2ccc(O)cc2)cc1
AC50 [1]: 1.38 µM (active)

COc1ccc(NC(=O)Nc2ccc3c(c2)C(=O)N([C@@H](C)CO)C[C@@H](C)[C@@H](CN(C)Cc2ccc(C(F)(F)F)cc2)OCCCC[C@@H](C)O3)cc1
AC50 (Paired box protein Pax-8): 8.18 µM (active)

O=C(CCl)N1CCN(S(=O)(=O)c2ccc3ccccc3c2)CC1
AC50 [5]: 12.7 µM (active) | EC50 (Protein RecA): 1.58 µM (active)

CC(C)CC(=O)NC(=S)NNC(=O)c1ccc([N+](=O)[O-])cc1
CC50 (Vero): 24.6 µM (active)

CCOc1cc(/C=N\NC(=O)c2ccc(NC(=O)C(C)(C)C)cc2)ccc1OC(=O)c1cccc(C)c1
IC50 (H9c2): > 79 µM (inactive)

Cc1c(O)cccc1C(=O)N[C@@H](CSc1ccccc1)[C@H](O)CN1C[C@H]2CCCC[C@H]2C[C@H]1C(=O)NC(C)(C)C
CC50 (Vero): > 25 µM (active)

COCCn1/c(=N/C(=O)c2sc3ccccc3c2Cl)sc2cc(S(N)(=O)=O)ccc21
EC50 [3]: 23.2 µM (active) | EC50 [4]: 22.5 µM (active)

CCOC(=O)c1cn(-c2nc(-c3ccc(Cl)c(Cl)c3)cs2)c2c(F)c(N3CCOCC3)c(F)cc2c1=O
CC50 [6]: 28.4 µM (active) | EC50 [3]: 8.96 µM (active) | EC50 [4]: 18.6 µM (active)

Cc1ccc(OCCN2CCN(CC(O)Cn3c4ccccc4c4ccccc43)CC2)cc1 (stereo not given)
EC50 [3]: 13.6 µM (active) | EC50 [4]: 10.9 µM (active)

COc1ccc(NC(=O)C(Sc2nnc(-c3ccncc3)n2-c2ccccc2C)c2ccccc2)cc1Cl (stereo not given)
AC50 (Paired box protein Pax-8): 15.5 µM (active)

CCOc1ccc(-n2c(SCC(=O)Nc3cc(C)on3)nc3c4ccccc4nc-3c2O)cc1
EC50 [3]: 28.4 µM (active) | EC50 [4]: 28.6 µM (active)

Oc1nnc(CNc2ccc(C(F)(F)F)cc2)c2ccccc12
IC50 (H9c2): 27.5 µM (active)

O=C(NCCc1ccc(F)cc1)C(=O)Nc1cc2c3c(c1)CC(=O)N3CCC2
IC50 (H9c2): > 79 µM (inactive)

CCN(C(=O)c1ccc2c(Cl)c3c(nc2c1)CCC3)c1ccc(C)c(C)c1
AC50 [5]: 14.1 µM (active) | EC50 (Protein RecA): 2.59 µM (active)

CCN(CC(=O)Nc1c(C(=O)OC)[nH]c2ccc(Cl)cc12)c1ccc2c(c1)OCO2
EC50 [3]: 19.4 µM (active) | EC50 [4]: 27.7 µM (active)

O=C(NCC1(c2ccccc2)CCCC1)C1(c2ccccc2)CCCC1
AC50 [5]: 10 µM (active) | EC50 (Protein RecA): 53.3 µM (active)

CC(=O)Nc1ccc(C(=O)N/N=C/c2ccccc2OC(=O)c2ccc(Cl)cc2)cc1
IC50 (H9c2): 8.26 µM (active)

O=C(NCc1ccco1)/C(=C/c1cccc(C(F)(F)F)c1)c1nc2ccccc2[nH]1
AC50 [5]: > 380 µM (inactive) | EC50 (Protein RecA): 54.4 µM (active) | CC50 (Vero): 13.7 µM (active)

CC(OC(=O)Cc1nnc(O)c2ccccc12)C(=O)Nc1cc(Cl)cc(Cl)c1 (stereo not given)
IC50 (H9c2): 20.8 µM (active)

CC(NC(=O)c1ccccc1NC(=O)CN1CCc2ccccc2C1)c1ccccc1 (stereo not given)
AC50 [7]: 9.12 µM (active) | AC50 [8]: 49.2 µM (active)

Cn1c(/C=C/c2cccc([N+](=O)[O-])c2)c([N+](=O)[O-])c(=O)n(C)c1=O
EC50 [9]: 58.4 µM (active) | CC50 [6]: 36 µM (active) | EC50 [10]: 7.56 µM (active) | AC50 [11]: 27.8 µM (active) | CC50 (Vero): 22.7 µM (active)

Cc1ccc2nc(N(CCCN(C)C)C(=O)CCc3ccccc3)sc2c1
EC50 [3]: 16.6 µM (active) | EC50 [4]: 16.6 µM (active)

Cc1ccc(NC(=O)CN2C(=O)/C(=C3\SC(=S)N(C4CCS(=O)(=O)C4)C3=O)c3ccccc32)cc1 (stereo not given)
IC50 [2]: 9.72 µM (not active) | IC50 [12]: 24.1 µM (active)
